The test system of this assay is Peripheral blood mononuclear cells (PBMCs). The experiment in a line: Cell viability assay (CellTiter-Glo), single dose, FIG. 10. Type of assay: cell-based, human. To be noted: patient samples; 75 nM d9A1-2 vs 7.5 µM EIPA; 72 hours. The protocol:
FIG. 10: Viability assay Relative viability of Peripheral blood mononuclear cells (PBMCs) after single-dose treatment with the d9A1-2 molecule or ethyl-isopropyl amiloride (EIPA). PBMCs were isolated from healthy donors and patients with acute myeloid leukemia, multiple myeloma, B cell lymphoma and Hodgkin’s lymphoma, chronic lymphocytic leukeumia. Viability was assayed using the CellTiter-Glo assay, 72 hours post treatment.
Peripheral blood mononuclear cells (PBMCs) were isolated using Lymphoprep (Stem Cell Technologies) from healthy donors and patients with acute myeloid leukemia, multiple myeloma, B cell lymphoma, Hodgkin’s lymphoma, chronic lymphocytic leukeumia. For comparison of different samples, compounds were transferred on black 384-well plates using an acoustic liquid handler (Echo, Labcyte).
Cells were seeded in these plates at densities of 20,000 cells per well in RPMI media (Gibco), supplemented with 10% fetal calf serum (Gibco). Viability was measured after 72 hours using the CellTiter-Glo assay (Promega) on a plate reader (SpectraMax i3x, Molecular Probes). All measurements were done in technical quadruplicates. Toxicity achieved by treatment with d9A1-2 or ethyl-isopropyl amiloride (EIPA) (Sigma) was normalized to the reference controls. Dose response fitting curves were obtained and plotted using GraphPad Prism V8. Data is presented as mean +/- SD.

On to `Cc1cc(-c2ccc(C(=O)NCCOCCOCCOCCOCCNc3cccc4c3C(=O)N(C3CCC(=O)NC3=O)C4=O)cc2N2CCC(c3[nH]cnc3C)CC2)ccc1F` (stereo not shown) [d9A1-2], for which the “toxicity (relative viability) in patient PBMCs compared with EIPA” value is “considerably more toxic than 7.5 µM EIPA”.

The values above are taken from patent US20230241226A1, “COMPOUNDS FOR TARGETED DEGRADATION OF CARRIER PROTEINS AND USES THEREOF” (CeMM - Forschungszentrum für Molekulare Medizin GmbH, priority 2019, published 2023).
